Assay results as given in BindingDB's records for doi:10.1016/j.bmcl.2006.03.040 (Merck Research Laboratories, 2006).

Assays:
[1] = molecular target: Potassium voltage-gated channel subfamily H member 2 (Homo sapiens, UniProt Q12809); assay: hERG Radioligand Competition Assay; conditions: pH 7.4; 22 °C
Method: The hERG IC50 values were determined by radioligand competition experiments using membrane preparations from human embryonic kidney cells that stably express hERG.

[2] = molecular target: Kinesin-like protein KIF11 (Homo sapiens, UniProt P52732); assay: Kinesin ATPase In Vitro Assay; conditions: pH 7; 23 °C
Kinesin-like protein KIF11, sequence (P52732 whole entry, looked up, the tested form may be a part): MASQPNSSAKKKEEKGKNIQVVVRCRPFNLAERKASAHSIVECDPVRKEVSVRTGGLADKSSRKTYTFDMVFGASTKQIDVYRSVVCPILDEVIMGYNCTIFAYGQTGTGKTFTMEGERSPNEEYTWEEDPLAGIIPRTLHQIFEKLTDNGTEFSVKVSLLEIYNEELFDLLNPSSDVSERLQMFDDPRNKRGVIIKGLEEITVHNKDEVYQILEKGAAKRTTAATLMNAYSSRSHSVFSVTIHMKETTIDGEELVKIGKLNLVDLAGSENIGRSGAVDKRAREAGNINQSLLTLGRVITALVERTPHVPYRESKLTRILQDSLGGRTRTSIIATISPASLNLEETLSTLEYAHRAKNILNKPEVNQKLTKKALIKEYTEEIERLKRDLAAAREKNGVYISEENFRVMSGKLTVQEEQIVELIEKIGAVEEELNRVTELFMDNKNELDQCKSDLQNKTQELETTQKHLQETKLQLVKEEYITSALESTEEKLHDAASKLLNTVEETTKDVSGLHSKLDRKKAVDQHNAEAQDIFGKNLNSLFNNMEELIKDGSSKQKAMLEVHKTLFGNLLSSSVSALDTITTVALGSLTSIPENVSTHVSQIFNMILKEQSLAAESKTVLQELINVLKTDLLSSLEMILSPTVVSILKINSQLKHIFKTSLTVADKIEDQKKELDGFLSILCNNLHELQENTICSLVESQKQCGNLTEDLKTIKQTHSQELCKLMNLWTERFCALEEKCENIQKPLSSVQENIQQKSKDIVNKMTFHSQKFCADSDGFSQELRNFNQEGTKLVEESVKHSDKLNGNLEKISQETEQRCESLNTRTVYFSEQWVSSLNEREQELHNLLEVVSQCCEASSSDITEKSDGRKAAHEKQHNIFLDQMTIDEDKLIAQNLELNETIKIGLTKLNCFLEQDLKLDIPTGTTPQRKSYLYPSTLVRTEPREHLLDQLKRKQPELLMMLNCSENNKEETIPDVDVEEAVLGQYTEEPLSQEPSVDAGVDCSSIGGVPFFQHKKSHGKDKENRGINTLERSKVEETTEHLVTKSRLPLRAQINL
Method: The kinesin motor domain is incubated with microtubules, 1 mM ATP (1: 1 MgCl2 : Na-ATP), and compound at 23°C in buffer. After reaction was terminated, free ph osphate from the ATP hydrolysis reaction is measured via a quinaldine red/ammoni um molybdate assay. The absorbance of the phospho-molybdate complex is […] Human poly-histidine tagged KSP motor domain was cloned, and protein was expressed in E. coli.

Potassium voltage-gated channel subfamily H member 2, sequence (Q12809 whole entry): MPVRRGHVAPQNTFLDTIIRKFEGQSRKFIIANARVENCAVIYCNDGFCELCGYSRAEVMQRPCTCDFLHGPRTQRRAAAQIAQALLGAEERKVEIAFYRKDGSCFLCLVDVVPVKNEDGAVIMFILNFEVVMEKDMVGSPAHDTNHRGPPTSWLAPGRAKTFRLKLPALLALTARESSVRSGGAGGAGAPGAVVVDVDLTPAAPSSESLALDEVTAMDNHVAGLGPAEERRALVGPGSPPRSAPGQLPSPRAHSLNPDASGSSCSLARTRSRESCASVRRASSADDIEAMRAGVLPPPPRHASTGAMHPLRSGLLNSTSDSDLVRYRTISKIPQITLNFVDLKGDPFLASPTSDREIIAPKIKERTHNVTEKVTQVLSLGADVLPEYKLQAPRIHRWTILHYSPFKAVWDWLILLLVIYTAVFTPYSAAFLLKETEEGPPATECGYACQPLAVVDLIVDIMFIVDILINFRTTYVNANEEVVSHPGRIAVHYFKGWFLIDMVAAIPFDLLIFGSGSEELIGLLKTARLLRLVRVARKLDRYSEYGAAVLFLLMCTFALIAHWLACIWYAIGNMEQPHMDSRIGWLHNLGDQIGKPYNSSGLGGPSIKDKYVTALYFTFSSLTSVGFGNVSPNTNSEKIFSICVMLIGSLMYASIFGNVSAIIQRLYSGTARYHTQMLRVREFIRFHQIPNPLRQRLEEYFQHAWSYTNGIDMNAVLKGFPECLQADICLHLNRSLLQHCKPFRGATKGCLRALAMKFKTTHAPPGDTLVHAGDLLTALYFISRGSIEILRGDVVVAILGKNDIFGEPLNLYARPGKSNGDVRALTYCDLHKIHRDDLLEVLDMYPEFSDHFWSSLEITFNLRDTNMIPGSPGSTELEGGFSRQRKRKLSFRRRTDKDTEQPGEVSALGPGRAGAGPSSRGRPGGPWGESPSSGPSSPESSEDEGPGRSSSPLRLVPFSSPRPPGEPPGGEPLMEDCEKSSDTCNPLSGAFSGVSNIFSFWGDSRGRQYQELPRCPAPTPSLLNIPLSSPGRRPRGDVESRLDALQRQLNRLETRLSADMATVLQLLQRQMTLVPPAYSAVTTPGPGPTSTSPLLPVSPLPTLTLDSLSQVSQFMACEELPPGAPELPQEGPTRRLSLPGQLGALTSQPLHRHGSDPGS

| SMILES | IC50 [1] [µM] | IC50 [2] [µM] |
| --- | --- | --- |
| CN(C)C(=O)N1N=C(c2cc(F)ccc2F)C[C@@]1(CCCN)c1ccccc1 [(5S)-5-(3-aminopropyl)-3-(2,5-difluorophenyl)-N,N-dimethyl-5-phenyl-4,5-dihydro-1H-pyrazole-1-carboxamide] | 19.3 |  |
| CC(=O)N1N=C(c2ccccc2Cl)C[C@H]1c1cccc(O)c1 [1-[(5S)-3-(2-chlorophenyl)-5-(3-hydroxyphenyl)-4,5-dihydro-1H-pyrazol-1-yl]ethan-1-one] |  | 0.45 |
| CNC(=O)N1N=C(c2cc(F)ccc2F)CC1c1ccccc1 (stereo not drawn) |  | 3.14 |
